{"source": "patent US7557109B2", "about": "“Treatment for attention-deficit hyperactivity disorder” (priority 2001, dated 2009)", "key": {"C3H mice": {"tested_on": "C3H mice", "experiment": "Peak procedure (30 second reinforcement interval), C3H mice", "type": "in vivo", "experimental": "The peak procedure is a behavioral model designed to assess an animal's ability to learn an appropriate time period in which to perform a task and a time period in which the animal will be rewarded if the task is performed. The model provides information concerning excitatory and inhibitory components of behavior, as subjects must respond to perform a task when appropriate and stop responding in an “empty trial” when time for reward has elapsed and the reward has not been delivered. The task is sensitive to conditions where there is a failure in inhibitory mechanisms, such as seems to be the case for ADHD (Pliszka et al., Biol. Psychiatry, 48:238-46, 2000).\nIn the peak procedure, mice are trained to work for food that is delivered at the same time in each trial, but withdrawn in some unreinforced trials. Typically, the response rate increases up to a maximum around the reinforcement time, and then decreases to a low toward the end of the trial. The shape of the response rate indicates whether the animal is sensitive to the time of reinforcement. To be able to perform well in this model, the animals need to be able to learn several tasks. First, the animal must make an association between a response (lever pressing, nose poking or key pecking) and the delivery of reward. Second, the animal must be able to perceive and remember time. Third, the animal must act on its remembered time by starting and then stopping or inhibiting the response. Fourth, the animal must be able to compare the elapsed time in the trials with its remembered time to reinforcement. […] Accuracy is measured by looking at the shape of the response function; therefore, if the response function is sharper and centered on the reinforcement time it supports a conclusion that attentional processes have been heightened.\nMice were food deprived to 85-90% of their free-feeding body weight by supplementing food earned during experimental sessions with a measured amount after the session had ended. […]"}, "wild-type mice": {"tested_on": "wild-type mice", "experiment": "DRL-36s schedule after FR5 conditioning, wild-type mice", "type": "in vivo", "experimental": "Experiments were conducted in eight identical mouse operant chambers (16×14×13 cm) with stainless steel grid floors (ENV-307M; Med Associates Inc., Georgia, Vt., USA) housed in sound-insulating and ventilated cubicles. Each chamber was equipped with two ultra-sensitive retractable levers, one on each side of a food cup containing photocells to register nose poke behavior and in which a pellet dispenser delivered 20 mg food pellets (Formula A/I, P.J. Noyes Company Inc., Lancaster, N.H., USA). A red house light (50 lux) was located in the center of the wall opposite to the food cup and levers. Stimulus lights were located above each lever and above the food cup. Experimental sessions were controlled and data were recorded by a computer.\nMice trained on DRL procedure first received operant conditioning. DRL-36s task was adapted from procedures used in rats (O'Donnell and Seiden, supra). Briefly, mice first learned to respond for food under a DRL 6 sec schedule, which means that mice had to wait at least 6 seconds between successive lever presses in order to obtain a food reward. Subsequently the schedule requirement was increased every session in steps of 6 sec to 36 sec (DRL 36 sec). Each session started with the illumination of the house light, the stimulus light above the food cup and the presentation of the left lever for the duration of the session. […] If the mouse presses too soon, no reinforcement is given, the clock is reset to zero, and a new 36-sec waiting period starts. In this way, the DRL-36s schedule task primarily measures waiting strategies which reflect hyperactivity-impulsivity behaviors associated with ADHD. Animals were trained until performances on the DRL 36 sec schedule had stabilized (approximately 25 sessions). All training sessions lasted 60 min and were conducted 5 days per week from Monday-Friday. The total number of lever presses (responses), the total number of reinforcements, and the inter-response times (IRT) are recorded.\nData were analyzed as described elsewhere (Richards et al., J. Exp. Anal. Behav. 60:361-385, 1993; Sabol et al., Psychopharmacology 121:57-65, 1995). The inter-response time (IRT) analysis included three measures for the characterization of DRL 36 sec IRT distributions: peak area, peak location and burst ratio. Only peak area (PkA) and peak location (PkL) are presented. The PkA measure is the area of the obtained IRT distribution of a mouse above the corresponding negative exponential, a computation based on mean of obtained IRT durations excluding the burst component of IRT<3 sec (see Richards et al., supra, for details). […] Thus, decreases in PkA indicate that the mouse's IRT distribution becomes more similar to random performance indicating loss of schedule control. PkL is calculated as the median of the area of the obtained IRT distribution above the corresponding negative exponential.\nMice were conditioned and challenged on a DRL-36s schedule according to the methods of Example 7, with the following modifications. Because 1BKO mice had difficulty learning the DRL-36s schedule following conditioning on an FR1, wild-type and 1BKO mice were conditioned on a fixed rate 5 (FR5) schedule. In FR5, instead of pressing the lever once for a reward, animals have to press 5 times. The rationale for changing the operant conditioning was that by increasing the number of responses necessary for reinforcement, the wild-type mice should have greater difficulty and the 1BKO (which have higher response rates anyway) should have less difficulty getting reinforcements."}, "dopamine receptors": {"target": "dopamine receptors", "conditions": "read-out: Ki, affinity for dopamine receptors; cited from earlier work"}, "5-HT receptor subtypes": {"tested_on": "5-HT receptor subtypes", "conditions": "cited from earlier work"}, "[1]": {"conditions": "in vivo; cited from earlier work"}}, "note": "pKi: −log10 of the molar value.", "data": [{"smiles": "c1cc2c(c(N3CCNCC3)c1)OCCO2", "note": "[eltoprazine, 1-(2,3-dihydro-1,4-benzodioxanyl-5-yl) piperazine]", "values": [{"measurement": "relative response rate curve in peak trials", "setting": "C3H mice; 0.1 and 0.9 mg/kg (FIG. 3)", "value": "cognitive enhancement was observed"}, {"measurement": "relative response rate curve in peak trials", "setting": "C3H mice; 1, 2 and 4 mg/kg (FIGS. 2A-C)", "value": "flatter than the saline curve"}, {"measurement": "number of reinforcements", "setting": "wild-type mice; 0.5 mg/kg and 1 mg/kg i.p. (FIG. 13A)", "value": "significantly decreased reinforcements"}, {"measurement": "response rate", "setting": "wild-type mice; 0.5 mg/kg i.p. (FIG. 13B)", "value": "significantly decreased response rates"}, {"measurement": "pKi", "setting": "dopamine receptors", "value": "< 6.00"}, {"measurement": "affinity for the 5-HT1A, 5-HT1B, and 5-HT2C receptors", "setting": "5-HT receptor subtypes", "value": "roughly equipotent affinity"}, {"measurement": "affinity for the 5-HT1D receptor", "setting": "5-HT receptor subtypes; compared with serotonin", "value": "relatively low affinity"}, {"measurement": "absolute bioavailability", "setting": "[1]", "value": "about 95%"}, {"measurement": "cumulative renal excretion of unchanged eltoprazine", "setting": "[1]", "value": "about 40%"}, {"measurement": "dose dependence of plasma concentrations", "setting": "[1]", "value": "increase in a linear dose-dependent manner"}, {"measurement": "plasma elimination half-life", "setting": "[1]", "value": "5 to 12", "unit": "h"}, {"measurement": "terminal half-life", "setting": "[1]", "value": "7 to 9", "unit": "h"}, {"measurement": "time to maximum plasma concentration after administration", "setting": "[1]", "value": "1 to 4", "unit": "h"}]}]}
